Experimental findings from ChEMBL document CHEMBL1139069, “Novel antiproliferative analogs of the Taq DNA polymerase inhibitor catalpol” (2007) are described below.

Common to all, as to assay type: functional
Experiment [1] deals with HBL-100. As to the kind of experiment: Cell cycle arrest in human HBL100 cells assessed as accumulation at G0/G1 phase at 10 uM after 24 hrs by flow cytometry. (In general: A flow cytometer gives signals particle by particle.)
For experiment [2], the system named is SW1573. Put plainly: Antiproliferative activity against human SW1573 cells after 48 hrs by SRB assay. As to conditions: SW1573, 48 h.
In the next experiment the test system is WiDr. As to the kind of experiment: Antiproliferative activity against human WiDr cells after 48 hrs by SRB assay. On the technique in general: Sulforhodamine B stains cellular protein and so reports cell mass.
A further experiment has as its system A2780. Put plainly: Antiproliferative activity against human A2780 cells after 48 hrs by SRB assay. The following applies: A2780, 48 h.
For experiment [3], the system named is SW1573. Put plainly: Cell cycle arrest in human SW1573 cells assessed as accumulation at G2/M phase at 5 uM after 24 hrs by flow cytometry.
Experiment [4] has as its system HBL-100. Put plainly: Antiproliferative activity against human HBL100 cells after 48 hrs by SRB assay. As to conditions: HBL-100, 48 h.
In experiment [5] the test system is HBL-100. As to the kind of experiment: Cell cycle arrest in human HBL100 cells assessed as accumulation at G2/M phase at 5 uM after 24 hrs by flow cytometry.
In experiment [6] the test system is SW1573. As to the kind of experiment: Cell cycle arrest in human SW1573 cells assessed as accumulation at S phase at 10 uM after 24 hrs by flow cytometry.
Experiment [7] relates to SW1573. As to the kind of experiment: Cell cycle arrest in human SW1573 cells assessed as accumulation at G2/M phase at 10 uM after 24 hrs by flow cytometry.
Experiment [8] deals with SW1573. As to the kind of experiment: Cell cycle arrest in human SW1573 cells assessed as accumulation at G0/G1 phase at 5 uM after 24 hrs by flow cytometry.
Experiment [9] has as its system HBL-100. As to the kind of experiment: Cell cycle arrest in human HBL100 cells assessed as accumulation at G2/M phase at 10 uM after 24 hrs by flow cytometry.
The subject of experiment [10] is HBL-100. As to the kind of experiment: Cell cycle arrest in human HBL100 cells assessed as accumulation at G0/G1 phase at 5 uM after 24 hrs by flow cytometry.
Experiment [11] relates to HBL-100. Put plainly: Cell cycle arrest in human HBL100 cells assessed as accumulation at S phase at 5 uM after 24 hrs by flow cytometry.
For experiment [12], the system named is HBL-100. Put plainly: Cell cycle arrest in human HBL100 cells assessed as accumulation at S phase at 10 uM after 24 hrs by flow cytometry.
In the next experiment the test system is HeLa. As to the kind of experiment: Antiproliferative activity against human HeLa cells after 48 hrs by SRB assay.
A further experiment has as its system T47D. Put plainly: Antiproliferative activity against human T47D cells after 48 hrs by SRB assay.
The test system of experiment [13] is SW1573. As to the kind of experiment: Cell cycle arrest in human SW1573 cells assessed as accumulation at G0/G1 phase at 10 uM after 24 hrs by flow cytometry.
In experiment [14] the test system is SW1573. Put plainly: Cell cycle arrest in human SW1573 cells assessed as accumulation at S phase at 5 uM after 24 hrs by flow cytometry.

As usually defined, the GI50 is the concentration at which growth is held to half of that of the control. Read a low GI50 as more potent growth inhibition.

SMILES strings stand for the structures.

For the compound `CC(C)(C)[Si](C)(C)OC[C@H]1O[C@H](O[C@@H]2OC=C[C@H]3[C@H](O)[C@@H]4O[C@]4(CO[Si](C)(C)C(C)(C)C)[C@@H]23)[C@H](O)[C@@H](O)[C@@H]1O`, the Activity in the experiment on HBL-100 [1] is reported as 51%; in the experiment with SW1573 [3] it was 14%; in the experiment on HBL-100 [5], 11%; with SW1573 [6], 20%; with SW1573 [7], 17%; in the experiment with SW1573 [8], 49%. Further, the Activity in the experiment with HBL-100 [9] was determined as 19%; in the experiment with HBL-100 [10], 54%; in the experiment with HBL-100 [11], 35%; with HBL-100 [12] it was 30%; in the experiment on SW1573 [13] it was 63%; in the experiment with SW1573 [14], 37%. The GI50 in the experiment with SW1573 [2] was determined as 4.8 µM; with WiDr, 2.7 µM; in the experiment on A2780 it was 2.6 µM; with HBL-100 [4] it was 2.8 µM; in the experiment on HeLa it was 3.6 µM; with T47D, 3.6 µM.

For `CC(C)(C)[Si](OC[C@H]1O[C@H](O[C@@H]2OC=C[C@H]3[C@H](O)[C@@H]4O[C@]4(CO[Si](c4ccccc4)(c4ccccc4)C(C)(C)C)[C@@H]23)[C@H](O)[C@@H](O)[C@@H]1O)(c1ccccc1)c1ccccc1`, the Activity in the experiment with HBL-100 [1] came to 59%; in the experiment with SW1573 [3], 14%; in the experiment on HBL-100 [5], 15%; in the experiment with SW1573 [6], 28%; in the experiment with SW1573 [7], 11%; in the experiment on SW1573 [8], 54%. The Activity is given as 13% with HBL-100 [9]; 52% in the experiment with HBL-100 [10]; 33% in the experiment with HBL-100 [11]; 28% in the experiment on HBL-100 [12]; 61% in the experiment on SW1573 [13]; 32% in the experiment with SW1573 [14]. The GI50 in the experiment on SW1573 [2] is 2.7 µM; in the experiment on WiDr, 3.4 µM; in the experiment with A2780 it was 2.4 µM; in the experiment with HBL-100 [4], 2.7 µM; in the experiment with HeLa, 4.4 µM; in the experiment with T47D, 4.1 µM.

On to `CC(C)(C)[Si](OC[C@H]1O[C@H](O[C@@H]2OC=C[C@H]3[C@H](O[Si](c4ccccc4)(c4ccccc4)C(C)(C)C)[C@@H]4O[C@]4(CO[Si](c4ccccc4)(c4ccccc4)C(C)(C)C)[C@@H]23)[C@H](O)[C@@H](O)[C@@H]1O)(c1ccccc1)c1ccccc1`, for which the Activity is 59% in the experiment on HBL-100 [1]; 13% in the experiment with SW1573 [3]; 12% with HBL-100 [5]; 37% with SW1573 [6]; 4% with SW1573 [7]; 58% in the experiment with SW1573 [8]. In addition, the Activity in the experiment on HBL-100 [9] turned out to be 11%; in the experiment on HBL-100 [10], 56%; in the experiment on HBL-100 [11] it was 32%; in the experiment on HBL-100 [12], 30%; in the experiment on SW1573 [13], 59%; in the experiment on SW1573 [14], 29%. Also, the GI50 with SW1573 [2] was 1.8 µM; with WiDr, 2 µM; with A2780, 2.4 µM; with HBL-100 [4], 2.4 µM; in the experiment on HeLa it was 2.1 µM; in the experiment on T47D it was 2.7 µM.

As to `CC(=O)OC[C@H]1O[C@H](O[C@@H]2OC=C[C@H]3[C@H](OC(C)=O)[C@@H]4O[C@]4(COC(C)=O)[C@@H]23)[C@H](OC(C)=O)[C@@H](OC(C)=O)[C@@H]1OC(C)=O`, the GI50 with SW1573 [2] was above 100 µM; in the experiment with WiDr, above 100 µM; in the experiment on A2780, 60 µM; in the experiment with T47D it was above 100 µM.

Regarding `O=C(OC[C@H]1O[C@H](O[C@@H]2OC=C[C@H]3[C@H](OC(=O)c4ccccc4)[C@@H]4O[C@]4(COC(=O)c4ccccc4)[C@@H]23)[C@H](OC(=O)c2ccccc2)[C@@H](OC(=O)c2ccccc2)[C@@H]1OC(=O)c1ccccc1)c1ccccc1`, the GI50 in the experiment with SW1573 [2], with WiDr, in the experiment with A2780, in the experiment on HBL-100 [4], in the experiment with HeLa and with T47D was above 100 µM each time.

For the compound `CC(C)(C)[Si](C)(C)OC[C@]12O[C@H]1[C@@H](O)[C@@H]1C=CO[C@@H](O[C@H]3O[C@H](CO)[C@@H](O)[C@H](O)[C@H]3O)[C@@H]12`, the GI50 turned out to be 88 µM in the experiment on SW1573 [2]; 81 µM in the experiment on WiDr; 36 µM in the experiment with A2780; 52 µM in the experiment with HBL-100 [4]; 77 µM in the experiment on HeLa; 87 µM in the experiment with T47D.

With `OC[C@H]1O[C@@H](O[C@@H]2OC=C[C@H]3[C@H](O)[C@@H]4O[C@]4(CO)[C@@H]23)[C@H](O)[C@@H](O)[C@@H]1O` [CATALPOL], the GI50 in the experiment on SW1573 [2], with WiDr, in the experiment on A2780 and with T47D was above 100 µM each time.

For the compound `C[C@]1(O)C[C@@H](O)[C@]2(O)C=CO[C@@H](O[C@H]3O[C@H](CO)[C@@H](O)[C@H](O)[C@H]3O)[C@@H]21` [HARPAGIDE], the GI50 with SW1573 [2], with WiDr, in the experiment with A2780 and in the experiment with T47D was above 100 µM throughout.
